{
  "source": "patent US12435044B2",
  "about": "“Pyridazinone herbicides and pyridazinone intermediates used to prepare a herbicide” (FMC Corporation, priority 2018, dated 2025)",
  "assay_type_in_all_cases": "in vivo",
  "key": {"[1]": {"tested_on": "horseweed (Conyza canadensis)", "assay": "Test C postemergence greenhouse test", "conditions": "scale 0 to 100", "text": "(§1) Seeds of plant species selected from blackgrass (Alopecurus myosuroides), ryegrass, Italian (Lolium multiflorum), wheat, winter (winter wheat, Triticum aestivum), galium (catchweed bedstraw, Galium aparine), corn (Zea mays), crabgrass, large (Digitaria sanguinalis), foxtail, giant (Setaria faberii), johnsongrass (Sorghum halepense), lambsquarters (Chenopodium album), morningglory (Ipomoea coccinea), nutsedge, yellow (Cyperus esculentus), pigweed (Amaranthus retroflexus), ragweed (common ragweed, Ambrosia elatior), soybean (Glycine max), barnyardgrass (Echinochloa crus-galli), oilseed rape (Brassica napus), waterhemp (common waterhemp, Amaranthus rudis), pigweed, palmer (Amaranthus palmeri), kochia (Kochia scoparia), oat, wild (Avena fatua), surinam grass (Brachiaria decumbens), windgrass (Apera spica-venti), poinsettia, wild (Euphorbia heterophylla) and velvetleaf (Abutilon theophrasti) were planted into a silt loam soil and treated preemergence with test chemicals formulated in a non-phytotoxic solvent mixture which included a surfactant.\n(§2) At the same time, plants selected from these crop and weed species and also chickweed (common chickweed, Stellaria media), buckwheat, wild (Polygonum convolvulus), mustard, wild (Sinapis arvensis), field poppy (Papaver rhoeas), field violet (Viola arvensis), nightshade (eastern black nightshade, Solanum ptycanthum), speedwell (bird's-eye speedwell, Veronica persica), horseweed (Conyza canadensis), cutleaf geranium (Geranium dissectum), and Canada thistle (Cirsium arvense) were planted in pots containing Redi-Earth® planting medium (Scotts Company, 14111 Scottslawn Road, Marysville, Ohio 43041) comprising spaghnum peat moss, vermiculite, wetting agent and starter nutrients and treated with postemergence applications of test chemicals formulated in the same manner. Plants ranged in height from 2 to 18 cm (1- to 4-leaf stage) for postemergence treatments. Treated plants and controls were maintained in a greenhouse for 13 to 21 d, after which time all species were compared to controls and visually evaluated. Plant response ratings, summarized in Table C-1 (postemergence) and C-2 (preemergence), are based on a scale of 0 to 100 where 0 is no effect and 100 is complete control. A dash (-) response means no test result."}, "[2]": {"tested_on": "nutsedge, yellow (Cyperus esculentus)", "assay": "Test E pre-/postemergence greenhouse test", "conditions": "Preemergence", "text": "(§3) Seeds of plant species selected from corn (Zea mays), soybean (Glycine max), velvetleaf (Abutilon theophrasti), lambsquarters (Chenopodium album), poinsettia, wild (Euphorbia heterophylla), pigweed, palmer (Amaranthus palmeri), waterhemp (common waterhemp, Amaranthus rudis), surinam grass (Brachiaria decumbens), crabgrass, large (Digitaria sanguinalis), crabgrass, Brazil (Digitaria horizontalis), panicum, fall (Panicum dichotomiflorum), foxtail, giant (Setaria faberii), foxtail, green (Setaria viridis), goosegrass (Eleusine indica), johnsongrass (Sorghum halepense), ragweed (common ragweed, Ambrosia elatior), barnyardgrass (Echinochloa crus-galli), sandbur (southern sandbur, Cenchrus echinatus), arrowleaf sida (Sida rhombifolia), ryegrass, Italian (Lolium multiflorum), dayflower, VA (Virginia (VA) dayflower, Commelina virginica), field bindweed (Convolvulus arvensis), morningglory (Ipomoea coccinea), horseweed (Conyza canadensis), kochia (Kochia scoparia), nutsedge, yellow (Cyperus esculentus) and hairy beggarticks (Bidenspilosa), were planted into a silt loam soil and treated preemergence with test chemicals formulated in a non-phytotoxic solvent mixture which included a surfactant.\n(§4) At the same time, plants selected from these crop and weed species and also waterhemp_RES1, (ALS & Triazine resistant common waterhemp, Amaranthus rudis), and waterhemp_RES2, (ALS & HPPD resistant common waterhemp, Amaranthus rudis) were planted in pots containing Redi-Earth® planting medium (Scotts Company, 14111 Scottslawn Road, Marysville, Ohio 43041) comprising spaghnum peat moss, vermiculite, wetting agent and starter nutrients were treated with postemergence applications of test chemicals formulated in the same manner. Plants ranged in height from 2 to 18 cm for postemergence treatments (1- to 4-leaf stage). Treated plants and controls were maintained in a greenhouse for 14 to 21 d, after which time all species were compared to controls and visually evaluated. Plant response ratings, summarized in Table E, are based on a scale of 0 to 100 where 0 is no effect and 100 is complete control. A dash (-) response means no test result."}, "[3]": {"tested_on": "rice (ORYSS; Oryza sativa, cv. M202)", "assay": "Test M postemergence, mixtures of Cpd. No. 20 with isoxadifen-ethyl, cloquintocet-mexyl or Mefenpyr-diethyl", "conditions": "approx. 14 d", "text": "(§5) This test evaluated the effect of mixtures of Cpd. No. 20 with isoxadifen-ethyl, or cloquintocet-mexyl, or Mefenpyr-diethyl on several plant species. Seeds of plant species selected from corn (ZEAMD; Zea mays, cv. ‘Pioneer 1184’), soybean (GLXMA; Glycine max, cv. Pioneer 35T58), winter wheat (TRZAW; Triticum aetivum, cv. Arezzo), winter barley (HORVW; Hordeum vulgare, cv. Boone), rice (ORYSS; Oryza sativa, cv. M202), and giant foxtail (SETFA; Setaria faberi) were planted in pots containing Redi-Earth® planting medium (Scotts Company, 14111 Scottslawn Road, Marysville, Ohio 43041) comprising spaghnum peat moss, vermiculite, wetting agent and starter nutrients and treated postemergence using test chemicals formulated in a non-phytotoxic solvent mixture which included a surfactant. Plants ranged in height from 7 to 10 cm and were in the one- to two-leaf stage for the postemergence treatment. Treated plants and untreated controls were maintained in a greenhouse for approximately 14 d, after which time all treated plants were compared to untreated controls and visually evaluated for injury. Plant response ratings, summarized in Tables M1 to M3, are based on a 0 to 100 scale where 0 is no effect and 100 is complete control. A dash (-) response means no test result. Test results are presented as a mean of 3 reps."}, "[4]": {"tested_on": "corn (ZEAMD; Zea mays, cv. ‘Pioneer 1184’)", "assay": "Test M postemergence, mixtures of Cpd. No. 20 with isoxadifen-ethyl, cloquintocet-mexyl or Mefenpyr-diethyl", "conditions": "approx. 14 d", "text": "as §5"}, "[5]": {"tested_on": "waterhemp_RES1, (ALS & Triazine resistant common waterhemp, Amaranthus rudis)", "assay": "Test E postemergence greenhouse test", "text": "as §3, §4"}, "[6]": {"tested_on": "waterhemp_RES2, (ALS & HPPD resistant common waterhemp, Amaranthus rudis)", "assay": "Test E postemergence greenhouse test", "text": "as §3, §4"}, "[7]": {"tested_on": "nightshade (eastern black nightshade, Solanum ptycanthum)", "assay": "Test C postemergence greenhouse test", "conditions": "scale 0 to 100", "text": "as §1, §2"}, "[8]": {"conditions": "Cpd. No. 20 alone 125 g a.i./ha"}, "[9]": {"conditions": "Cpd. No. 20 alone 250 g a.i./ha"}, "[10]": {"conditions": "Cpd. No. 20 alone 375 g a.i./ha"}},
  "data": [
    {"smiles": "Cc1ccc2ccc(F)cc2c1-c1c(O)c(Cl)nn(C)c1=O", "note": "[Cpd. No. 21]", "values": [
      {"measurement": "Plant response rating, Horseweed", "setting": "[1]; 16 g ai/ha", "value": 80},
      {"measurement": "Plant response rating, Horseweed", "setting": "[1]; 31 g ai/ha", "value": 85},
      {"measurement": "Plant response rating, Horseweed", "setting": "[1]; 62 g ai/ha", "value": 90},
      {"measurement": "Plant response rating, Horseweed", "setting": "[1]; 125 g ai/ha", "value": 90}
    ]},
    {"smiles": "Cc1ccc2ccc(C)c(-c3c(O)c(Cl)nn(C)c3=O)c2c1", "note": "[Cpd. No. 20, 6-chloro-4-(2,7-dimethyl-1-naphthalenyl)-5-hydroxy-2-methyl-3(2H)-pyridazinone]", "values": [
      {"measurement": "Plant response rating, Nutsedge, Yellow", "setting": "[2]; 16 g ai/ha", "value": 10},
      {"measurement": "Plant response rating, Nutsedge, Yellow", "setting": "[2]; 31 g ai/ha", "value": 15},
      {"measurement": "Plant response rating, Nutsedge, Yellow", "setting": "[2]; 62 g ai/ha", "value": 75},
      {"measurement": "Plant response rating, Nutsedge, Yellow", "setting": "[2]; 125 g ai/ha", "value": 75},
      {"measurement": "Plant response rating (0 to 100 scale) ORYSS", "setting": "[3]; Cpd. No. 20 alone 62 g a.i./ha", "value": 20},
      {"measurement": "Plant response rating (0 to 100 scale) ORYSS", "setting": "[3]; [8]", "value": 35},
      {"measurement": "Plant response rating (0 to 100 scale) ORYSS", "setting": "[3]; [9]", "value": 40},
      {"measurement": "Plant response rating (0 to 100 scale) ORYSS", "setting": "[3]; [10]", "value": 40},
      {"measurement": "Plant response rating (0 to 100 scale) ZEAMD", "setting": "[4]; Cpd. No. 20 alone 62 g a.i./ha", "value": 0},
      {"measurement": "Plant response rating (0 to 100 scale) ZEAMD", "setting": "[4]; [8]", "value": 17},
      {"measurement": "Plant response rating (0 to 100 scale) ZEAMD", "setting": "[4]; [9]", "value": 28},
      {"measurement": "Plant response rating (0 to 100 scale) ZEAMD", "setting": "[4]; [10]", "value": 33},
      {"measurement": "Plant response rating, Waterhemp_RES1", "setting": "[5]; 16 g ai/ha", "value": 75},
      {"measurement": "Plant response rating, Waterhemp_RES1", "setting": "[5]; 31 g ai/ha", "value": 90},
      {"measurement": "Plant response rating, Waterhemp_RES1", "setting": "[5]; 62 g ai/ha", "value": 80},
      {"measurement": "Plant response rating, Waterhemp_RES1", "setting": "[5]; 125 g ai/ha", "value": 95},
      {"measurement": "Plant response rating, Waterhemp_RES2", "setting": "[6]; 16 g ai/ha", "value": 15},
      {"measurement": "Plant response rating, Waterhemp_RES2", "setting": "[6]; 31 g ai/ha", "value": 40},
      {"measurement": "Plant response rating, Waterhemp_RES2", "setting": "[6]; 62 g ai/ha", "value": 60},
      {"measurement": "Plant response rating, Waterhemp_RES2", "setting": "[6]; 125 g ai/ha", "value": 70}
    ]},
    {"smiles": "Cc1cc(Cl)c2ccccc2c1-c1c(O)c(Cl)nn(C)c1=O", "note": "[Cpd. No. 65]", "values": [
      {"measurement": "Plant response rating, Nightshade", "setting": "[7]; 16 g ai/ha", "value": 90},
      {"measurement": "Plant response rating, Nightshade", "setting": "[7]; 31 g ai/ha", "value": 100},
      {"measurement": "Plant response rating, Nightshade", "setting": "[7]; 62 g ai/ha", "value": 100},
      {"measurement": "Plant response rating, Nightshade", "setting": "[7]; 125 g ai/ha", "value": 100}
    ]}
  ]
}
